From ChEMBL document CHEMBL3045792, “Synthesis, antimicrobial activity, and molecular modeling of novel 4-(3-(4-benzylpiperazin-1-yl)propoxy)-7-methoxy-3-substituted phenyl-2H-chromen-2-one” (2013)
Activity calls are given as the source filed them. The calls are words filed in the database; no cut-off is given here.

Tests used:
Assay type in all cases: functional
Colletotrichum falcatum [1] = experiment: Antifungal activity against Glomerella tucumanensis assessed as growth inhibition at 300 ug/ml; conditions: read-out: IZ
Exserohilum rostratum [2] = experiment: Antifungal activity against Setosphaeria rostrata assessed as growth inhibition at 300 ug/ml; conditions: read-out: IZ
Colletotrichum falcatum [3] = experiment: Antifungal activity against Glomerella tucumanensis assessed as growth inhibition at 600 ug/ml; conditions: read-out: IZ
Exserohilum rostratum [4] = experiment: Antifungal activity against Setosphaeria rostrata assessed as growth inhibition at 1200 ug/ml; conditions: read-out: IZ
Fusarium oxysporum [5] = experiment: Antifungal activity against Fusarium oxysporum assessed as growth inhibition at 900 ug/ml; conditions: for zone of inhibition at 900 µg/mL: read-out: IZ
Colletotrichum falcatum [6] = experiment: Antifungal activity against Glomerella tucumanensis assessed as growth inhibition at 1200 ug/ml; conditions: read-out: IZ
Exserohilum rostratum [7] = experiment: Antifungal activity against Setosphaeria rostrata assessed as growth inhibition at 900 ug/ml; conditions: read-out: IZ
Candida albicans [8] = experiment: Antifungal activity against Candida albicans assessed as growth inhibition at 1200 ug/ml; conditions: read-out: IZ
Fusarium oxysporum [9] = experiment: Antifungal activity against Fusarium oxysporum assessed as growth inhibition at 600 ug/ml; conditions: for zone of inhibition at 600 µg/mL: read-out: IZ
Exserohilum rostratum [10] = experiment: Antifungal activity against Setosphaeria rostrata assessed as growth inhibition at 600 ug/ml; conditions: read-out: IZ
Fusarium oxysporum [11] = experiment: Antifungal activity against Fusarium oxysporum assessed as growth inhibition at 300 ug/ml; conditions: for zone of inhibition at 300 µg/mL: read-out: IZ
Candida albicans [12] = experiment: Antifungal activity against Candida albicans assessed as growth inhibition at 300 ug/ml; conditions: read-out: IZ
Colletotrichum falcatum [13] = experiment: Antifungal activity against Glomerella tucumanensis assessed as growth inhibition at 900 ug/ml; conditions: read-out: IZ
Candida albicans [14] = experiment: Antifungal activity against Candida albicans assessed as growth inhibition at 900 ug/ml; conditions: read-out: IZ
Fusarium oxysporum [15] = experiment: Antifungal activity against Fusarium oxysporum assessed as growth inhibition at 1200 ug/ml; conditions: for zone of inhibition at 1200 µg/mL: read-out: IZ
Candida albicans [16] = experiment: Antifungal activity against Candida albicans assessed as growth inhibition at 600 ug/ml; conditions: read-out: IZ
Staphylococcus aureus [17] = experiment: Antibacterial activity against Staphylococcus aureus assessed as growth inhibition at 600 ug/ml by NCCLS […] method; conditions: read-out: IZ
Bacillus subtilis [18] = experiment: Antibacterial activity against Bacillus subtilis assessed as growth inhibition at 600 ug/ml by NCCLS […] method; conditions: read-out: IZ
Bacillus pumilus [19] = experiment: Antibacterial activity against Bacillus pumilus assessed as growth inhibition at 600 ug/ml by NCCLS […] method
Bacillus pumilus [20] = experiment: Antibacterial activity against Bacillus pumilus assessed as growth inhibition at 900 ug/ml by NCCLS […] method
Proteus vulgaris [21] = experiment: Antibacterial activity against Proteus vulgaris assessed as growth inhibition at 900 ug/ml by NCCLS […] method; conditions: read-out: IZ
Klebsiella aerogenes [22] = experiment: Antibacterial activity against Enterobacter aerogenes assessed as growth inhibition at 900 ug/ml by NCCLS […] method; conditions: read-out: IZ
Staphylococcus aureus [23] = experiment: Antibacterial activity against Staphylococcus aureus assessed as growth inhibition at 900 ug/ml by NCCLS […] method; conditions: read-out: IZ
Proteus vulgaris [24] = experiment: Antibacterial activity against Proteus vulgaris assessed as growth inhibition at 600 ug/ml by NCCLS […] method; conditions: read-out: IZ
Klebsiella pneumoniae [25] = experiment: Antibacterial activity against Klebsiella pneumoniae assessed as growth inhibition at 600 ug/ml by NCCLS […] method; conditions: read-out: IZ
Bacillus subtilis [26] = experiment: Antibacterial activity against Bacillus subtilis assessed as growth inhibition at 900 ug/ml by NCCLS […] method; conditions: read-out: IZ
Proteus mirabilis [27] = experiment: Antibacterial activity against Proteus mirabilis assessed as growth inhibition at 900 ug/ml by NCCLS […] method; conditions: read-out: IZ
Priestia megaterium [28] = experiment: Antibacterial activity against Bacillus megaterium assessed as growth inhibition at 900 ug/ml by NCCLS […] method; conditions: read-out: IZ
Escherichia coli [29] = experiment: Antibacterial activity against Escherichia coli assessed as growth inhibition at 600 ug/ml by NCCLS […] method
Priestia megaterium [30] = experiment: Antibacterial activity against Bacillus megaterium assessed as growth inhibition at 600 ug/ml by NCCLS […] method; conditions: read-out: IZ
Streptococcus pyogenes [31] = experiment: Antibacterial activity against Streptococcus pyogenes assessed as growth inhibition at 600 ug/ml by NCCLS […] method; conditions: read-out: IZ
Streptococcus pyogenes [32] = experiment: Antibacterial activity against Streptococcus pyogenes assessed as growth inhibition at 900 ug/ml by NCCLS […] method; conditions: read-out: IZ
Klebsiella aerogenes [33] = experiment: Antibacterial activity against Enterobacter aerogenes assessed as growth inhibition at 600 ug/ml by NCCLS […] method; conditions: read-out: IZ
Escherichia coli [34] = experiment: Antibacterial activity against Escherichia coli assessed as growth inhibition at 900 ug/ml by NCCLS […] method
Proteus mirabilis [35] = experiment: Antibacterial activity against Proteus mirabilis assessed as growth inhibition at 600 ug/ml by NCCLS […] method; conditions: read-out: IZ
Klebsiella pneumoniae [36] = experiment: Antibacterial activity against Klebsiella pneumoniae assessed as growth inhibition at 900 ug/ml by NCCLS […] method; conditions: read-out: IZ

Compound | zone of inhibition at 300 µg/mL (Colletotrichum falcatum [1]) | zone of inhibition at 300 µg/mL (Exserohilum rostratum [2]) | zone of inhibition at 600 µg/mL (Colletotrichum falcatum [3]) | zone of inhibition at 1200 µg/mL (Exserohilum rostratum [4]) | zone of inhibition at 900 µg/mL (Fusarium oxysporum [5]) | zone of inhibition at 1200 µg/mL (Colletotrichum falcatum [6]) | zone of inhibition at 900 µg/mL (Exserohilum rostratum [7]) | zone of inhibition at 1200 µg/mL (Candida albicans [8]) | zone of inhibition at 600 µg/mL (Fusarium oxysporum [9]) | zone of inhibition at 600 µg/mL (Exserohilum rostratum [10]) | zone of inhibition at 300 µg/mL (Fusarium oxysporum [11]) | zone of inhibition at 300 µg/mL (Candida albicans [12]) | zone of inhibition at 900 µg/mL (Colletotrichum falcatum [13]) | zone of inhibition at 900 µg/mL (Candida albicans [14]) | zone of inhibition at 1200 µg/mL (Fusarium oxysporum [15]) | zone of inhibition at 600 µg/mL (Candida albicans [16]) | zone of inhibition at 600 µg/mL (Staphylococcus aureus [17]) | zone of inhibition at 600 µg/mL (Bacillus subtilis [18]) | zone of inhibition at 900 µg/mL (Proteus vulgaris [21]) | zone of inhibition at 900 µg/mL (Klebsiella aerogenes [22]) | further results
CCC(C)n1ncn(-c2ccc(N3CCN(c4ccc(OCC5COC(Cn6cncn6)(c6ccc(Cl)cc6Cl)O5)cc4)CC3)cc2)c1=O (stereo not drawn) [ITRACONAZOLE] | 4.45 mm | 3.56 mm | 9.34 mm | 27.4 mm | 20 mm | 33.8 mm | 14.8 mm | 23 mm | 10.8 mm | 7.56 mm | 5.46 mm | 2.67 mm | 18.3 mm | 12 mm | 34.4 mm | 5.35 mm |  |  |  |  | 
COc1ccc(CN2CCN(CCCOc3c(-c4ccccc4)c(=O)oc4cc(OC)ccc34)CC2)cc1 | 4.08 mm | 3.8 mm | 8.62 mm | 28.8 mm |  | 31.8 mm | 15 mm | 23.2 mm |  | 7.56 mm |  | 2.76 mm | 17 mm | 11 mm |  | 5.62 mm | 3 mm | 4.28 mm | 4.25 mm | 8.9 mm | zone of inhibition at 600 µg/mL (Bacillus pumilus [19]; read-out: IZ): 5.25 mm; zone of inhibition at 900 µg/mL (Bacillus pumilus [20]; read-out: IZ): 10.5 mm; zone of inhibition at 900 µg/mL (Staphylococcus aureus [23]): 6.25 mm; zone of inhibition at 600 µg/mL (Proteus vulgaris [24]): 2 mm; zone of inhibition at 600 µg/mL (Klebsiella pneumoniae [25]): 5.48 mm; zone of inhibition at 900 µg/mL (Bacillus subtilis [26]): 8.9 mm; growth inhibition (GI) (Fusarium oxysporum [5]): inactive; zone of inhibition at 900 µg/mL (Proteus mirabilis [27]): 10.5 mm; zone of inhibition at 900 µg/mL (Priestia megaterium [28]): 8.19 mm; growth inhibition (GI) (Escherichia coli [29]): inactive; zone of inhibition at 600 µg/mL (Priestia megaterium [30]): 4.26 mm; growth inhibition (GI) (Fusarium oxysporum [9]): inactive; zone of inhibition at 600 µg/mL (Streptococcus pyogenes [31]): 2.08 mm; zone of inhibition at 900 µg/mL (Streptococcus pyogenes [32]): 4.19 mm; zone of inhibition at 600 µg/mL (Klebsiella aerogenes [33]): 4.24 mm; growth inhibition (GI) (Fusarium oxysporum [11]): inactive; growth inhibition (GI) (Escherichia coli [34]): inactive; zone of inhibition at 600 µg/mL (Proteus mirabilis [35]): 5.25 mm; growth inhibition (GI) (Fusarium oxysporum [15]): inactive; zone of inhibition at 900 µg/mL (Klebsiella pneumoniae [36]): 10.1 mm
COc1ccc2c(OCCCN3CCN(Cc4cccnc4)CC3)c(-c3ccccc3)c(=O)oc2c1 | 4.45 mm | 2.9 mm | 7.76 mm | 23.4 mm | 18.8 mm | 27 mm | 11.9 mm | 24.6 mm | 8.78 mm | 6.76 mm | 3.47 mm | 3.21 mm | 13.2 mm | 13.7 mm | 27.9 mm | 6.14 mm | 11.6 mm | 8.76 mm | 17.1 mm | 8.56 mm | growth inhibition (GI) (Bacillus pumilus [19]): inactive; growth inhibition (GI) (Bacillus pumilus [20]): inactive; zone of inhibition at 900 µg/mL (Staphylococcus aureus [23]): 21.4 mm; zone of inhibition at 600 µg/mL (Proteus vulgaris [24]): 8.76 mm; zone of inhibition at 600 µg/mL (Klebsiella pneumoniae [25]): 3.78 mm; zone of inhibition at 900 µg/mL (Bacillus subtilis [26]): 15.1 mm; zone of inhibition at 900 µg/mL (Proteus mirabilis [27]): 21.6 mm; zone of inhibition at 900 µg/mL (Priestia megaterium [28]): 13.4 mm; zone of inhibition at 600 µg/mL (Escherichia coli [29]; read-out: IZ): 3.87 mm; zone of inhibition at 600 µg/mL (Priestia megaterium [30]): 7.65 mm; zone of inhibition at 600 µg/mL (Streptococcus pyogenes [31]): 9.12 mm; zone of inhibition at 900 µg/mL (Streptococcus pyogenes [32]): 16.8 mm; zone of inhibition at 600 µg/mL (Klebsiella aerogenes [33]): 4.22 mm; zone of inhibition at 900 µg/mL (Escherichia coli [34]; read-out: IZ): 6.21 mm; zone of inhibition at 600 µg/mL (Proteus mirabilis [35]): 11.3 mm; zone of inhibition at 900 µg/mL (Klebsiella pneumoniae [36]): 7.93 mm
